One test relates to Leigh cells. Description: Cell death caused by oxidative stress (BSO) in Leigh syndrome patient fibroblasts. It counts as cell-based, human. Conditions: compound 10 μM, 4 days after BSO treatment. Here is the method: In Examples 2 to 7 and Reference Example 1 below, an erythropoietin-producing human hepatocellular carcinoma cell Hep3B (obtained from ATCC [American Type Culture Collection]) was cultured and maintained under conditions of 5% CO2/20% O2 and 37° C. in an RPMI1640 (manufactured by Life Technologies, Inc./GIBCO) medium containing 100 U/mL penicillin (manufactured by Life Technologies, Inc./GIBCO), 100 μg/mL streptomycin (manufactured by Life Technologies, Inc./GIBCO), and 10% fetal bovine serum (FBS) (manufactured by Life Technologies, Inc./GIBCO) (hereinafter, referred to as “RPMI1640 common medium 1”). In Example 15 below, Leigh syndrome patients were subjected to skin biopsy to obtain skin fibroblast cells, which were then primarily cultured under conditions of 5% CO2/20% O2 and 37° C. in a DMEM low glucose (manufactured by Life Technologies, Inc./GIBCO) medium containing 100 U/mL penicillin (manufactured by Life Technologies, Inc./GIBCO), 100 μg/mL streptomycin (manufactured by Life Technologies, Inc./GIBCO), and 1% FBS (manufactured by Life Technologies, Inc./GIBCO) (hereinafter, referred to as “DMEM low glucose common medium”) to isolate cells (Leigh cells). In Example 13 below, a human kidney-derived cell line HK-2 (obtained from ATCC) was cultured and maintained under conditions of 5% CO2/20% O2 and 37° C. in a DMEM/F12 (manufactured by Life Technologies, Inc./GIBCO) medium containing 100 U/mL penicillin (manufactured by Life Technologies, Inc./GIBCO), 100 μg/mL streptomycin (manufactured by Life Technologies, Inc./GIBCO), and 10% fetal bovine serum (manufactured by Life Technologies, Inc./GIBCO) (hereinafter, referred to as “DMEM/F12 common medium”). In Example 14 below, a rat islet of Langerhans-derived cell line ISN-1e (kindly provided by Hisamitsu Ishihara, Nihon University School of Medicine) was cultured and maintained under conditions of 5% CO2/20% O2 and 37° C. in an RPMI1640 (manufactured by Life Technologies, Inc./GIBCO) medium containing 10 mM HEPES (manufactured by Sigma-Aldrich Corp.), 2 mM glutamine (manufactured by Sigma-Aldrich Corp.), 50 μM β-mercaptoethanol (manufactured by Sigma-Aldrich Corp.), 100 U/mL penicillin (manufactured by Life Technologies, Inc./GIBCO), 100 μg/mL streptomycin (manufactured by Life Technologies, Inc./GIBCO), and 10% FBS (manufactured by Life Technologies, Inc./GIBCO) (hereinafter, referred to as “RPMI1640 common medium 2”).
The Leigh cells were seeded at 4×10^4 cells/well to a 24-well cell culture plate and then cultured for 24 hours. The glutathione synthesis inhibitor BSO (L-buthionine sulphoximine) (manufactured by Sigma-Aldrich Corp.) was mixed at […] into a medium. After culture for 24 hours in the presence of BSO, each of 5 types of compounds (compounds #2, 4, 5, 21, and 35) was mixed at 10 μM into the medium. After culture for 4 days in the presence of these 5 types of compounds, the number of live cells was measured using Cell Counting Kit-8 (manufactured by Dojindo Laboratories) to calculate the survival rate of the cells (“BSO+#2”, “BSO+#4”, “BSO+#5”, “BSO+#21”, and “BSO+#35” of FIG. 17). […]

A further test deals with erythropoietin. The experiment in a line: Erythropoietin production in vivo in mice, oral administration for 7 days. On the set-up: species or system mouse. Conditions: 7 consecutive days, plasma 24 hours after final administration, vs corn oil, DMSO+corn oil or no administration. As to the method:
A mixed solution (200 μl) of each of 4 types of compounds (compounds #4, 5, 21, and 35) (10 mg/100 μl of DMSO) (10 μl) and corn oil (190 μl) was prepared. This mixed solution (200 μl) was orally administered to each mouse (C57BL/6N 8 W, male, 21-25 g) between 15:00 to 18:00 every day using a sonde. This administration was carried out for 7 consecutive days. Mice orally given corn oil or DMSO and corn oil as well as non-administered mice were used as controls.
24 hours after the final administration, each mouse was cervically dislocated, and 500 μl of blood was collected from the heart. Then, an anticoagulant (10 μl of heparin) was added thereto, and the resulting blood was centrifuged (12000 rpm×20 min, 4° C.) to isolate plasma. The plasma concentration […] of erythropoietin was measured using a kit (Quantikine Mouse/Rat Epo Immunoassay, manufactured by R&D Systems, Inc.).

The results in this text go back to patent US10004718B2, “Erythropoietin expression promoter” (TOHOKU UNIVERSITY, priority 2012, dated 2018).

`O=C(CC(C(=O)O)c1c[nH]c2ccccc12)c1ccc(F)cc1` (stereo not drawn) [compound #4, 4-(4-Fluorophenyl)-2-(1H-indol-3-yl)-4-oxo-butanoic acid]: in the test on Leigh cells, the “cell death of the Leigh cells by BSO” value was “efficiently suppress the cell death”. In the test on erythropoietin, the “amount of erythropoietin in the mouse blood” value (shortened to “amount of erythropoietin”) is recorded as “increased”.

Turning to `O=C(O)C(CCCC(F)(F)C(F)(F)F)c1c[nH]c2ccccc12` (stereo not drawn) [compound #21, α-(4,4,5,5,5-Pentafluoro-1-pentyl)-3-indoleacetic acid], the “cell death of the Leigh cells by BSO” value in the test with Leigh cells is on record as “efficiently suppress the cell death”. Also, the “amount of erythropoietin” value with erythropoietin is “increased”.

As for `O=C(CC(C(=O)O)c1c[nH]c2ccccc12)c1ccc(F)cc1F` (stereo not drawn) [compound #5, 4-(2,4-Difluorophenyl)-2-(1H-indol-3-yl)-4-oxo-butanoic acid], in the test with Leigh cells, the “cell death of the Leigh cells by BSO” value is “efficiently suppress the cell death”. For the same compound, the “amount of erythropoietin” value in the test with erythropoietin was “increased”.
